Source: ChEMBL document CHEMBL2040790 (Bioorg Med Chem Lett, 2012)
pEC50: −log10 of the molar value.

What was measured:
Vaccinia virus = assay: Antiviral activity against Vaccinia virus; type: functional, organism-based; conditions: Orthopoxvirus vaccinia
La Crosse virus = assay: Antiviral activity against La Crosse virus infected in african green monkey Vero cells assessed as inhibition of virus-induced cytopathic effect by fluorometric analysis; type: functional, organism-based

SMILES: CCS/C(=N\C(=O)c1ccc(C(C)(C)C)cc1)Nc1ccccc1Cl
- pEC50 (Vaccinia virus): 5.72
- pEC50 (La Crosse virus): 6.29

SMILES: COc1cc(NC(=S)NC(=O)c2ccc(C(C)(C)C)cc2)ccc1NC(=O)c1ccccn1
- pEC50 (Vaccinia virus): < 4.60
- pEC50 (La Crosse virus): < 4.60

SMILES: CC(C)(C)c1ccc(C(=O)NC(=S)Nc2ccc(Cl)cc2Cl)cc1
- pEC50 (Vaccinia virus): < 4.60
- pEC50 (La Crosse virus): < 4.60

SMILES: CCS/C(=N\C(=O)c1ccc(C(C)(C)C)cc1)Nc1ccc(NC(=O)c2ccccc2Cl)c(OC)c1
- pEC50 (Vaccinia virus): 6.64
- pEC50 (La Crosse virus): 6.52

SMILES: CCN(C(=S)NC(=O)c1ccc(C(C)(C)C)cc1)c1ccc(NC(=O)c2ccccc2Cl)c(OC)c1
- pEC50 (Vaccinia virus): 5.00
- pEC50 (La Crosse virus): < 4.60

SMILES: COc1cc(NC(=S)NC(=O)c2ccc(C(C)(C)C)cc2)ccc1NC(=O)c1ccc2nc[nH]c2c1
- pEC50 (Vaccinia virus): < 4.60
- pEC50 (La Crosse virus): < 4.60

SMILES: CC(C)(C)c1ccc(C(=O)NC(=S)Nc2ccc(C(=O)O)cc2)cc1
- pEC50 (Vaccinia virus): < 4.60
- pEC50 (La Crosse virus): < 4.60

SMILES: COc1cccc(NC(=S)NC(=O)c2ccc(C(C)(C)C)cc2)c1
- pEC50 (Vaccinia virus): 5.39
- pEC50 (La Crosse virus): < 4.60

SMILES: COc1cc(NC(=N)NC(=O)c2ccc(C(C)(C)C)cc2)ccc1NC(=O)c1ccccc1Cl
- pEC50 (Vaccinia virus): < 4.60

SMILES: Cc1cccc(NC(=S)NC(=O)c2ccc(C(C)(C)C)cc2)c1Cl
- pEC50 (Vaccinia virus): 5.74
- pEC50 (La Crosse virus): 5.93

SMILES: CC(C)(C)c1ccc(C(=O)NC(=S)Nc2ccc(NC(=O)c3ccccc3Cl)c(O)c2)cc1
- pEC50 (Vaccinia virus): 6.64
- pEC50 (La Crosse virus): 6.68

SMILES: COC(=O)CC(=O)Nc1ccc(NC(=S)NC(=O)c2ccc(C(C)(C)C)cc2)cc1OC
- pEC50 (Vaccinia virus): 4.73
- pEC50 (La Crosse virus): < 4.60

SMILES: COc1cc(NC(=S)NC(=O)c2ccc(C(C)(C)C)cc2)ccc1NC(=O)CC(=O)O
- pEC50 (Vaccinia virus): < 4.60
- pEC50 (La Crosse virus): < 4.60

SMILES: Cc1ccc(C)c(NC(=S)NC(=O)c2ccc(C(C)(C)C)cc2)c1
- pEC50 (Vaccinia virus): 5.54
- pEC50 (La Crosse virus): < 4.60

SMILES: CC(C)(C)c1ccc(C(=O)NC(=S)Nc2ccccn2)cc1
- pEC50 (Vaccinia virus): < 4.60
- pEC50 (La Crosse virus): < 4.60

SMILES: COc1cc(NC(=S)NC(=O)c2ccc(C(C)(C)C)cc2)ccc1NC(=N)c1ccccc1Cl
- pEC50 (Vaccinia virus): 5.76
- pEC50 (La Crosse virus): 5.69

SMILES: COc1ccc(NC(=S)NC(=O)c2ccc(C(C)(C)C)cc2)cc1NC(=O)c1ccccc1Cl
- pEC50 (Vaccinia virus): < 4.60
- pEC50 (La Crosse virus): < 4.60

SMILES: CC(C)(C)c1ccc(C(=N)NC(=S)Nc2ccccc2Cl)cc1
- pEC50 (Vaccinia virus): < 4.60
- pEC50 (La Crosse virus): < 4.60

SMILES: COc1cc(NC(=S)NC(=O)c2ccc(C(C)(C)C)cc2)ccc1NC(=S)c1ccccc1Cl
- pEC50 (Vaccinia virus): 6.00
- pEC50 (La Crosse virus): 6.19

SMILES: CC(C)(C)c1ccc(C(=O)NC(=S)Nc2ccccc2[N+](=O)[O-])cc1
- pEC50 (Vaccinia virus): 5.44
- pEC50 (La Crosse virus): 5.43

SMILES: Cc1cccc(NC(=S)NC(=O)c2ccc(C(C)(C)C)cc2)c1C
- pEC50 (Vaccinia virus): 5.74
- pEC50 (La Crosse virus): 5.59

SMILES: COc1cc(N/C(=N/C(=O)c2ccc(C(C)(C)C)cc2)SCC(=O)OC(C)(C)C)ccc1NC(=O)c1ccccc1Cl
- pEC50 (Vaccinia virus): < 4.60
- pEC50 (La Crosse virus): < 4.60

SMILES: CC(C)(C)c1ccc(C(=O)NC(=S)Nc2ccc(Nc3ccccc3)cc2)cc1
- pEC50 (Vaccinia virus): 6.09
- pEC50 (La Crosse virus): 5.77

SMILES: CC(C)(C)c1ccc(C(=O)NC(=S)Nc2ccccc2N)cc1
- pEC50 (Vaccinia virus): < 4.60
- pEC50 (La Crosse virus): < 4.60

SMILES: COc1cc(NC(=S)NC(=O)c2ccc(C(C)(C)C)cc2)ccc1NC(=O)c1ccncc1
- pEC50 (Vaccinia virus): 5.69

SMILES: CC(C)(C)c1ccc(C(=O)NC(=S)Nc2ccc(S(=O)(=O)N3CCCCC3)cc2)cc1
- pEC50 (Vaccinia virus): < 4.60
- pEC50 (La Crosse virus): < 4.60

SMILES: CN(Cc1ccccc1)S(=O)(=O)c1ccc(NC(=S)NC(=O)c2ccc(C(C)(C)C)cc2)cc1
- pEC50 (Vaccinia virus): < 4.60
- pEC50 (La Crosse virus): < 4.60

SMILES: COc1cc(NC(=S)NC(=O)c2ccc(C(C)(C)C)cc2)ccc1NC(=O)CCCCN(C)C
- pEC50 (Vaccinia virus): < 4.60
- pEC50 (La Crosse virus): < 4.60

SMILES: CC(C)(C)c1ccc(C(=O)NC(=S)Nc2cccnc2)cc1
- pEC50 (Vaccinia virus): < 4.60
- pEC50 (La Crosse virus): < 4.60

SMILES: CC(C)(C)c1ccc(C(=O)NC(=S)Nc2nc(-c3cccc([N+](=O)[O-])c3)cs2)cc1
- pEC50 (Vaccinia virus): < 4.60
- pEC50 (La Crosse virus): < 4.60

SMILES: CC(C)(C)c1ccc(C(=O)NC(=S)Nc2ccc(NC(=O)c3ccccc3)cc2Cl)cc1
- pEC50 (Vaccinia virus): 6.80
- pEC50 (La Crosse virus): 7.10

SMILES: CC(C)(C)c1ccc(C(=O)NC(=S)Nc2ccc(NC(=O)c3ccccc3Cl)c(N)c2)cc1
- pEC50 (Vaccinia virus): 7.22
- pEC50 (La Crosse virus): 7.30

SMILES: COc1cc(NC(=S)NC(=O)c2ccc(C(C)(C)C)cc2)ccc1NC(=O)c1ncccn1
- pEC50 (Vaccinia virus): < 4.60
- pEC50 (La Crosse virus): < 4.60

SMILES: Cc1ccc(NC(=S)NC(=O)c2ccc(C(C)(C)C)cc2)cc1C
- pEC50 (Vaccinia virus): 5.41
- pEC50 (La Crosse virus): 5.91

SMILES: CC(C)(C)c1ccc(C(=O)NC(=S)Nc2ccc(N)cc2Cl)cc1
- pEC50 (Vaccinia virus): 6.21
- pEC50 (La Crosse virus): 6.12

SMILES: CC(C)(C)c1ccc(C(=O)NC(=S)Nc2ccc([N+](=O)[O-])cc2)cc1
- pEC50 (Vaccinia virus): 5.39
- pEC50 (La Crosse virus): < 4.60

SMILES: CC(C)(C)c1ccc(C(=O)NC(=S)Nc2ccc(S(=O)(=O)NC3CCCCC3)cc2)cc1
- pEC50 (Vaccinia virus): < 4.60
- pEC50 (La Crosse virus): < 4.60

SMILES: COc1ccccc1NC(=S)NC(=O)c1ccc(C(C)(C)C)cc1
- pEC50 (Vaccinia virus): 5.86
- pEC50 (La Crosse virus): 5.94

SMILES: Cc1ccccc1NC(=S)NC(=O)c1ccc(C(C)(C)C)cc1
- pEC50 (Vaccinia virus): 6.08
- pEC50 (La Crosse virus): 6.20

SMILES: COc1cc(NC(=S)NC(=O)c2ccc(C(C)(C)C)cc2)ccc1NC(C)=O
- pEC50 (Vaccinia virus): 5.49
- pEC50 (La Crosse virus): 5.87

SMILES: CC(C)(C)c1ccc(C(=O)NC(=S)Nc2ccc(Cl)cc2)cc1
- pEC50 (Vaccinia virus): < 4.60
- pEC50 (La Crosse virus): < 4.60

SMILES: COc1cc(NC(=S)NC(=O)c2ccc(C(C)(C)C)cc2)ccc1NC(=O)c1cccnc1
- pEC50 (Vaccinia virus): 5.76

SMILES: CC(C)(C)c1ccc(C(=O)NC(=S)Nc2ccc(Nc3ccccn3)cc2)cc1
- pEC50 (Vaccinia virus): < 4.60
- pEC50 (La Crosse virus): < 4.60

SMILES: CC(C)(C)c1ccc(C(=O)NC(=S)Nc2cc(OC(F)(F)F)ccc2Cl)cc1
- pEC50 (Vaccinia virus): 5.72
- pEC50 (La Crosse virus): < 4.60

SMILES: CC(C)(C)c1ccc(C(=O)NC(=S)Nc2ccc(S(=O)(=O)Nc3nccs3)cc2)cc1
- pEC50 (Vaccinia virus): < 4.60
- pEC50 (La Crosse virus): < 4.60

SMILES: Cc1ccc(NC(=S)NC(=O)c2ccc(C(C)(C)C)cc2)c(C)c1
- pEC50 (Vaccinia virus): 5.97
- pEC50 (La Crosse virus): 6.06

SMILES: Cc1cccc(NC(=S)NC(=O)c2ccc(C(C)(C)C)cc2)c1
- pEC50 (Vaccinia virus): 6.00
- pEC50 (La Crosse virus): 5.88

SMILES: COc1cc(NC(=S)NC(=O)c2ccc(C(C)(C)C)cc2)ccc1NC(=O)c1ccc(N)cc1
- pEC50 (Vaccinia virus): 4.70
- pEC50 (La Crosse virus): < 4.60

SMILES: COc1cc(NC(=S)NC(=O)c2ccc(C(C)(C)C)cc2)ccc1NC(=O)c1cnccn1
- pEC50 (Vaccinia virus): < 4.60
- pEC50 (La Crosse virus): < 4.60

SMILES: CC(C)(C)c1ccc(C(=O)NC(=S)Nc2cccc(Cl)c2)cc1
- pEC50 (Vaccinia virus): 5.80
- pEC50 (La Crosse virus): 5.38

SMILES: CC(C)(C)c1ccc(C(=O)NC(=S)Nc2cccc(C(=O)O)c2)cc1
- pEC50 (Vaccinia virus): < 4.60
- pEC50 (La Crosse virus): < 4.60

SMILES: Cc1ccc(NC(=S)NC(=O)c2ccc(C(C)(C)C)cc2)cc1
- pEC50 (Vaccinia virus): 5.72
- pEC50 (La Crosse virus): 5.31

SMILES: CC(C)(C)c1ccc(C(=O)NC(=S)Nc2cccc([N+](=O)[O-])c2)cc1
- pEC50 (Vaccinia virus): < 4.60
- pEC50 (La Crosse virus): < 4.60

SMILES: COc1cc(NC(=S)NC(=O)c2ccc(C(C)(C)C)cc2)ccc1NC(=O)CCN(C)C
- pEC50 (Vaccinia virus): < 4.60
- pEC50 (La Crosse virus): < 4.60

SMILES: COc1cc(NC(=S)NC(=O)c2ccc(C(C)(C)C)cc2)ccc1NC(=N)N
- pEC50 (Vaccinia virus): < 4.60
- pEC50 (La Crosse virus): < 4.60

SMILES: COc1cc(NC(=S)NCc2ccc(C(C)(C)C)cc2)ccc1NC(=O)c1ccccc1Cl
- pEC50 (Vaccinia virus): < 4.60
- pEC50 (La Crosse virus): < 4.60

SMILES: COc1cc(NC(=S)NC(=O)c2ccc(C(C)(C)C)cc2)ccc1NC(=O)c1ccccc1N
- pEC50 (Vaccinia virus): 5.58
- pEC50 (La Crosse virus): < 4.60

SMILES: CN(C)c1ccc(NC(=S)NC(=O)c2ccc(C(C)(C)C)cc2)cc1
- pEC50 (Vaccinia virus): 5.61

SMILES: COc1cc(N/C(=N/C#N)NC(=O)c2ccc(C(C)(C)C)cc2)ccc1NC(=O)c1ccccc1Cl
- pEC50 (Vaccinia virus): < 4.60
